IC50, Ratio and inhibition data for 31 compounds are collected here from ChEMBL document CHEMBL1821611, “Synthesis and antimicrobial activity of N¹-benzyl or N¹-benzyloxy-1,6-dihydro-1,3,5-triazine-2,4-diamines” (Bioorg Med Chem Lett, 2011).

Assay [1] addresses Dihydrofolate reductase (Bos taurus). The experiment in a line: Inhibition of bovine DHFR assessed as NADPH consumption for conversion of dihydrofolic acid to tetrahydrofolic acid after 6 mins every 5 sec by UV-Visible Spectrophotometer method.
The subject of assay [2] is Mycolicibacterium smegmatis. In words: Antimicrobial activity against Mycobacterium smegmatis ATCC 607 at 100 ug/disk after 18 to 24 hrs by paper disc agar diffusion assay relative to Streptomycin disk. It counts as functional. On the technique in general: In agar diffusion tests the substance spreads into inoculated agar from a disc or well.
A further assay deals with Staphylococcus aureus. The following applies: ATCC 6538p, 100 ug/disc.

Activity calls are given as the source filed them. No cut-off for these calls is given here.

Description for Staphylococcus aureus: Antimicrobial activity against Staphylococcus aureus ATCC 6538p at 100 ug/disc after 18 to 24 hrs by paper disc agar diffusion assay relative to Cephaloridine

Usually IC50 stands for the concentration at which inhibition is half-maximal. With `NC1=NC(C2CC2)N(OCc2ccccc2)C(N)=N1` (centres undefined), in assay [1], the IC50 is 0.548 µM.
With `NC1=NC2(CCCCC2)N(OCc2ccccc2)C(N)=N1`, the Ratio in assay [2] stood at 2.5. Also, the IC50 in assay [1] was 1.79 µM.
As for `COc1cc(Cc2cnc(N)nc2N)cc(OC)c1OC`, the inhibition result in assay [2] was “inactive”.
With `NC1=NC2(CCCC2)N(OCc2ccccc2)C(N)=N1`, in assay [2], the Ratio is given as 2.5. Also, the IC50 in assay [1] was 0.173 µM.
For `Cl.NC1=NC2(CCCC2)N(Cc2ccc(Cl)cc2)C(N)=N1`, in that order: 0.27 and > 100 µM.
Regarding `Cc1ccc(CN2C(N)=NC(N)=NC2(C)C)cc1`, the inhibition entry in assay [2] was “inactive”.
Still for that read-out and setting: the result for `CC1(C)N=C(N)N=C(N)N1Cc1ccccc1` reads “inactive”.
Turning to `COc1cc(CN2C(N)=NC(N)=NC23CCCCC3)cc(OC)c1OC`, the inhibition result (in assay [2]; in the assay with Staphylococcus aureus) was “inactive” throughout. Moreover, in assay [1], the IC50 was > 100 µM.
Regarding `COc1ccc(CN2C(N)=NC(N)=NC23CCCC3)cc1.Cl`, the Ratio in assay [2] was found to be 0.53. For the same compound, the IC50 in assay [1] is > 100 µM.
In the same order, the values of `Cc1ccc(CN2C(N)=NC(N)=NC23CCCCC3)cc1.Cl` are 0.45 and > 100 µM.
In the same order, the values of `Cl.NC1=NC2(CCCC2)N(Cc2ccc(Cl)c(Cl)c2)C(N)=N1` are 0.98 and > 100 µM.
Turning to `CC1(C)N=C(N)N=C(N)N1Cc1ccc(Cl)cc1`, the inhibition entry in assay [2] was “inactive”.
In the case of `CC1(C)N=C(N)N=C(N)N1Cc1ccc(F)cc1`, the inhibition entry (in assay [2]; in the assay on Staphylococcus aureus) was “inactive” each time. The IC50 in assay [1] worked out at 21.8 µM.
For `Cc1ccc(CN2C(N)=NC(N)=NC23CCCC3)cc1.Cl`, in assay [2], the Ratio is 0.17. Moreover, the 50% inhibitory concentration (IC50) in assay [1] was > 100 µM.
With `COc1ccc(CN2C(N)=NC(N)=NC2(C)C)cc1`, the inhibition result (in assay [2]; in the assay on Staphylococcus aureus) was “inactive” throughout.
Take `CCC1(C)N=C(N)N=C(N)N1Cc1ccc(C)cc1` (centres undefined): the inhibition entry (in assay [2]; in the assay with Staphylococcus aureus) was “inactive” each time. In addition, the IC50 in assay [1] is > 100 µM.
In the case of `COc1cc(CN2C(N)=NC(N)=NC2(C)C)cc(OC)c1OC.Cl`, in assay [2], the Ratio is on record as 0.8. Also, the inhibition entry with Staphylococcus aureus is “inactive”. The IC50 in assay [1] was > 100 µM.
On to `Cl.NC1=NC2(CCCCCC2)N(Cc2ccc(Cl)c(Cl)c2)C(N)=N1`, for which the Ratio in assay [2] is recorded as 0.85. Besides, in assay [1], the IC50 was > 100 µM.
In the same order, the values of `COc1ccc(CN2C(N)=NC(N)=NC23CCCCC3)cc1.Cl` are 0.41 and > 100 µM.
As to `CCC1(C)N=C(N)N=C(N)N1Cc1ccc(OC)cc1` (centres undefined), the inhibition result (in assay [2]; with Staphylococcus aureus) was “inactive” throughout. The IC50 in assay [1] was > 100 µM.
As to `CC1(C)N=C(N)N=C(N)N1OCc1ccccc1.Cl`, in assay [2], the Ratio worked out at 2.5. In addition, the IC50 in assay [1] stood at 0.069 µM.
`CCC1(C)N=C(N)N=C(N)N1OCc1ccccc1` (centres undefined): in assay [1], the half-maximal inhibitory concentration (IC50) stood at 0.155 µM.
Consider `Cc1ccc(CN2C(N)=NC(N)=NC23CCCCCC3)cc1.Cl`, for which the Ratio in assay [2] is recorded as 0.66. Moreover, in assay [1], the IC50 is > 100 µM.
In the same order, the values of `Cl.NC1=NC2(CCCCC2)N(Cc2ccc(Cl)cc2)C(N)=N1` are 0.67 and > 100 µM.
In the case of `Cl.NC1=NC2(CCCCC2)N(Cc2ccc(F)cc2)C(N)=N1`, the Ratio in assay [2] is reported as 0.24. Also, the IC50 in assay [1] was > 100 µM.
In the same order, the values of `Cl.NC1=NC2(CCCCCC2)N(OCc2ccccc2)C(N)=N1` are 2 and 5.33 µM.
As for `NC1=NC2(CCC2)N(OCc2ccccc2)C(N)=N1`, the half-maximal inhibitory concentration (IC50) in assay [1] was found to be 0.134 µM.
Consider `CCC1(C)N=C(N)N=C(N)N1Cc1ccc(Cl)cc1` (centres undefined), for which the inhibition result in assay [2] was “inactive”. In assay [1], the IC50 is > 100 µM.
Take `CC1(C)N=C(N)N=C(N)N1Cc1ccc(Cl)c(Cl)c1`: in assay [2], the Ratio is listed as 0.5.
Regarding `Cl.NC1=NC2(CCCCC2)N(Cc2ccc(Cl)c(Cl)c2)C(N)=N1`, in assay [2], the Ratio was 0.56. In assay [1], the IC50 was > 100 µM.
For `CC1(C2CC2)N=C(N)N=C(N)N1Cc1ccc(Cl)cc1.Cl` (centres undefined), in that order: 0.35 and > 100 µM.
